Literature values, collected in paper PMC10323144, “Garbage in, garbage out: how reliable training data improved a virtual screening approach against SARS-CoV-2 MPro” (Frontiers in Pharmacology, 2023).
Numbered stars: 1 amine (or outer) side, 2 acyl side, 3 side chain; on linkers, the order of the positions; unused ones are H or OH. Bridge positions count the residues as written; N and C are the ends. Square brackets hold non-standard residues; d marks the D form. Peptide text beside a SMILES is read from it. * marks the point of attachment. hTyr(3S-OH,4S-OH,3'-OSO3H) = N[C@H](C(=O)O)[C@H](O)[C@@H](O)c1ccc(O)c(OS(=O)(=O)O)c1; Orn(4R-OH,5R-OH) = O=C([C@H](C[C@@H](O)[C@@H](O)N[*:3])N[*:1])[*:2]; Pro(3S-OH,4S-Me) = C[C@H]1CN[C@H](C(=O)O)[C@H]1O; X1 = CCCCCOc1ccc(-c2cc(-c3ccc(C(=O)*)cc3)no2)cc1; Gln(3R-OH) = NC(=O)C[C@@H](O)[C@H](N)C(=O)O; Hyp = O=C(O)[C@@H]1C[C@@H](O)CN1; Cbz = O=C(OCc1ccccc1)*

System: MPro
Details: compiled from peer-reviewed sources (287 compounds) ref the 18 original articles; cited from earlier work

Row | Compound | Class (MPro activity class)
1 | O=c1[nH]cc(-c2cc(-c3cc(Cl)cc(OCCc4ccccc4)c3)c(=O)n(-c3cccnc3)c2)c(=O)[nH]1 [compound 15] | 1 (Compounds with IC50 < 10 µM or with a percentage of enzyme inhibition >50% at 10 µM were labelled as ACTIVE)
2 | Phillyrin | 0 (compounds with IC50 > 20 μM, percentage inhibition <80% at 20 µM or 50 μM, or percentage enzyme inhibition <50% at 10 µM were labelled as INACTIVE)
3 | CCCCOc1cc(Cl)cc(-c2cc(-c3c[nH]c(=O)[nH]c3=O)cn(-c3cccnc3)c2=O)c1 [compound 12] | 1 (Compounds with IC50 < 10 µM or with a percentage of enzyme inhibition >50% at 10 µM were labelled as ACTIVE)
4 | COCCc1ccc(Cl)cc1CN1CCN(C(=O)CCl)CC1 [MED-COV-4280ac29-37] | 1 (Compounds with IC50 < 10 µM or with a percentage of enzyme inhibition >50% at 10 µM were labelled as ACTIVE)
5 | COc1cc(C2OCC3C(c4ccc(OC5OC(CO)C(O)C(O)C5O)c(OC)c4)OCC23)ccc1O (single isomer, unassigned; (+)) [(+)-Pinoresinol-4-O-β-D-glucopyraside] | 0 (compounds with IC50 > 20 μM, percentage inhibition <80% at 20 µM or 50 μM, or percentage enzyme inhibition <50% at 10 µM were labelled as INACTIVE)
6 | C=CC(=O)N(c1ccc(C(C)(C)C)cc1)C(C(=O)Nc1ccc(OC)cc1OC)c1cccnc1 (stereo not drawn) [LON-WEI-adc59df6-45] | 1 (Compounds with IC50 < 10 µM or with a percentage of enzyme inhibition >50% at 10 µM were labelled as ACTIVE)
7 | CC(C)C[C@H](NC(=O)[C@@H](NC(=O)c1cccc(-c2ccccc2)n1)[C@@H](C)O)B(O)O [delanzomib] | 0 (compounds with IC50 > 20 μM, percentage inhibition <80% at 20 µM or 50 μM, or percentage enzyme inhibition <50% at 10 µM were labelled as INACTIVE)
8 | O=C(C=Cc1ccccc1)NC(CC1CCCCC1)C(=O)NC(CC1CCNC1=O)C(=O)C(=O)NCc1ccccc1 (stereo not drawn) [compound 11r] | 1 (Compounds with IC50 < 10 µM or with a percentage of enzyme inhibition >50% at 10 µM were labelled as ACTIVE)
9 | CC(C)CN(C[C@@H](O)[C@H](Cc1ccccc1)NC(=O)O[C@H]1CO[C@H]2OCC[C@H]21)S(=O)(=O)c1ccc(N)cc1 [Darunavir] | 0 (compounds with IC50 > 20 μM, percentage inhibition <80% at 20 µM or 50 μM, or percentage enzyme inhibition <50% at 10 µM were labelled as INACTIVE)
10 | C#Cc1cccc(Nc2ncnc3cc(OCCOC)c(OCCOC)cc23)c1 [ERLOTINIB] | 0 (compounds with IC50 > 20 μM, percentage inhibition <80% at 20 µM or 50 μM, or percentage enzyme inhibition <50% at 10 µM were labelled as INACTIVE)
11 | CC(C)[C@H](O)C(=O)N[C@@H](C)C(=O)N[C@@H]1C(=O)N(C)CCc2ccccc21 [Semagacestat] | 0 (compounds with IC50 > 20 μM, percentage inhibition <80% at 20 µM or 50 μM, or percentage enzyme inhibition <50% at 10 µM were labelled as INACTIVE)
12 | O=C1c2ccccc2NC(c2cc([N+](=O)[O-])ccc2O)N1N=Cc1cc([N+](=O)[O-])ccc1O (stereo not drawn) [QZ5] | 0 (compounds with IC50 > 20 μM, percentage inhibition <80% at 20 µM or 50 μM, or percentage enzyme inhibition <50% at 10 µM were labelled as INACTIVE)
13 | Cc1ccncc1NC(=O)Cc1cccc(Cl)c1 [TRY-UNI-714a760b-6] | 0 (compounds with IC50 > 20 μM, percentage inhibition <80% at 20 µM or 50 μM, or percentage enzyme inhibition <50% at 10 µM were labelled as INACTIVE)
14 | CSCCC(C=O)NC(=O)C(CC(C)C)NC(=O)C(CC(C)C)NC(C)=O (stereo not drawn) [Calpain inhibitor II] (Ac-Leu-Leu-Met-aldehyde; configuration not given here) | 1 (Compounds with IC50 < 10 µM or with a percentage of enzyme inhibition >50% at 10 µM were labelled as ACTIVE)
15 | O=C(Oc1cncc(Cl)c1)c1cccc2c1CCN2 [GRL-172] | 1 (Compounds with IC50 < 10 µM or with a percentage of enzyme inhibition >50% at 10 µM were labelled as ACTIVE)
16 | O=C(Nc1cnn2ccc(N3CCC[C@@H]3c3cc(F)ccc3F)nc12)N1CC[C@H](O)C1 [LAROTRECTINIB] | 0 (compounds with IC50 > 20 μM, percentage inhibition <80% at 20 µM or 50 μM, or percentage enzyme inhibition <50% at 10 µM were labelled as INACTIVE)
17 | CCCCCOc1ccc(-c2cc(-c3ccc(C(=O)N[C@H]4C[C@@H](O)[C@@H](O)NC(=O)[C@@H]5[C@@H](O)[C@@H](C)CN5C(=O)[C@H]([C@H](O)CC(N)=O)NC(=O)[C@H]([C@H](O)[C@@H](O)c5ccc(O)c(OS(=O)(=O)O)c5)NC(=O)[C@@H]5C[C@@H](O)CN5C(=O)[C@H]([C@@H](C)O)NC4=O)cc3)no2)cc1 [Micafungin] (X1-[Orn(4R-OH,5R-OH)]T[Hyp][hTyr(3S-OH,4S-OH,3'-OSO3H)][Gln(3R-OH)][Pro(3S-OH,4S-Me)]; lactam 1-C) | 0 (compounds with IC50 > 20 μM, percentage inhibition <80% at 20 µM or 50 μM, or percentage enzyme inhibition <50% at 10 µM were labelled as INACTIVE)
18 | O=c1c(O)c(-c2cc(O)c(O)c(O)c2)oc2cc(O)cc(O)c12 [Myricetin] | 1 (Compounds with IC50 < 10 µM or with a percentage of enzyme inhibition >50% at 10 µM were labelled as ACTIVE)
19 | Carmofur | 1 (Compounds with IC50 < 10 µM or with a percentage of enzyme inhibition >50% at 10 µM were labelled as ACTIVE)
20 | CC(C)C(NC(=O)OCc1ccccc1)C(=O)NC(C=O)Cc1ccccc1 (stereo not drawn) [Calpain inhibitor III] (Cbz-Val-Phe-aldehyde; configuration not given here) | 0 (compounds with IC50 > 20 μM, percentage inhibition <80% at 20 µM or 50 μM, or percentage enzyme inhibition <50% at 10 µM were labelled as INACTIVE)

Row | Compound | Class (MPro activity class)
21 | CC(C)c1c(C(=O)Nc2ccccc2)c(-c2ccccc2)c(-c2ccc(F)cc2)n1CC[C@@H](O)C[C@@H](O)CC(=O)O [Atorvastatin] | 0 (compounds with IC50 > 20 μM, percentage inhibition <80% at 20 µM or 50 μM, or percentage enzyme inhibition <50% at 10 µM were labelled as INACTIVE)
22 | CNC(=O)[C@H](Cc1c[nH]c2ccccc12)NC(=O)[C@@H](CC(=O)NO)CC(C)C [Ilomastat] | 0 (compounds with IC50 > 20 μM, percentage inhibition <80% at 20 µM or 50 μM, or percentage enzyme inhibition <50% at 10 µM were labelled as INACTIVE)
23 | CC(C)(C)C#Cc1cc(N(C(=O)[C@H]2CC[C@H](C)CC2)[C@H]2CC[C@H](O)CC2)c(C(=O)O)s1 [Lomibuvir] | 0 (compounds with IC50 > 20 μM, percentage inhibition <80% at 20 µM or 50 μM, or percentage enzyme inhibition <50% at 10 µM were labelled as INACTIVE)
24 | Nc1cc(C(F)(F)F)c(-c2nc(N3CCOCC3)nc(N3CCOCC3)n2)cn1 [BIMIRALISIB] | 0 (compounds with IC50 > 20 μM, percentage inhibition <80% at 20 µM or 50 μM, or percentage enzyme inhibition <50% at 10 µM were labelled as INACTIVE)
25 | CC(C)c1nc(CN(C)C(=O)N[C@@H](CCN2CCOCC2)C(=O)N[C@H](CC[C@H](Cc2ccccc2)NC(=O)OCc2cncs2)Cc2ccccc2)cs1 [cobicistat] | 1 (Compounds with IC50 < 10 µM or with a percentage of enzyme inhibition >50% at 10 µM were labelled as ACTIVE)
26 | Cc1cc(Cl)cc(CC2CCN(C(=O)CCl)CC2)c1 [NIR-THE-0d6461ce-8] | 1 (Compounds with IC50 < 10 µM or with a percentage of enzyme inhibition >50% at 10 µM were labelled as ACTIVE)
27 | Disulfiram | 1 (Compounds with IC50 < 10 µM or with a percentage of enzyme inhibition >50% at 10 µM were labelled as ACTIVE)
28 | O=C(CCl)N1CCN(S(=O)(=O)c2c(F)cccc2F)CC1 [LON-WEI-8f408cad-2] | 1 (Compounds with IC50 < 10 µM or with a percentage of enzyme inhibition >50% at 10 µM were labelled as ACTIVE)
29 | C=C(CC)C(=O)c1ccc(OCC(=O)O)c(Cl)c1Cl [ethacrynic acid] | 0 (compounds with IC50 > 20 μM, percentage inhibition <80% at 20 µM or 50 μM, or percentage enzyme inhibition <50% at 10 µM were labelled as INACTIVE)
30 | O=C(Nc1ccc(N(Cc2ccsc2)C(=O)Cn2nnc3ccccc32)cc1)C1CC1 [16e (ML300)] | 1 (Compounds with IC50 < 10 µM or with a percentage of enzyme inhibition >50% at 10 µM were labelled as ACTIVE)
31 | Cc1cc(CCCOc2c(C)cc(-c3noc(C(F)(F)F)n3)cc2C)on1 [Pleconaril] | 0 (compounds with IC50 > 20 μM, percentage inhibition <80% at 20 µM or 50 μM, or percentage enzyme inhibition <50% at 10 µM were labelled as INACTIVE)
32 | Nc1cccc(C2CN(C(=O)CCl)Cc3ccccc32)c1 (stereo not drawn) [NIR-THE-c331be7a-1] | 1 (Compounds with IC50 < 10 µM or with a percentage of enzyme inhibition >50% at 10 µM were labelled as ACTIVE)
33 | COc1cc(OC)nc(O[C@H](C(=O)O)C(OC)(c2ccccc2)c2ccccc2)n1 | 0 (compounds with IC50 > 20 μM, percentage inhibition <80% at 20 µM or 50 μM, or percentage enzyme inhibition <50% at 10 µM were labelled as INACTIVE)
34 | CCOC(=O)c1nc(S(C)(=O)=O)ncc1Cl [LON-WEI-ff7b210a-5] | 1 (Compounds with IC50 < 10 µM or with a percentage of enzyme inhibition >50% at 10 µM were labelled as ACTIVE)
35 | N#Cc1ccccc1-c1cc(-c2cccc(Cl)c2)c(=O)n(-c2cccnc2)c1 [compound 2] | 1 (Compounds with IC50 < 10 µM or with a percentage of enzyme inhibition >50% at 10 µM were labelled as ACTIVE)
36 | COc1c(O[C@@H]2O[C@H](C(=O)O)[C@@H](O)[C@H](O)[C@H]2O)cc(O)c2c(=O)cc(-c3ccccc3)oc12 [Wogonoside] | 0 (compounds with IC50 > 20 μM, percentage inhibition <80% at 20 µM or 50 μM, or percentage enzyme inhibition <50% at 10 µM were labelled as INACTIVE)
37 | CCOC(=O)/C=C/[C@H](C[C@@H]1CCNC1=O)NC(=O)[C@@H](CC(=O)[C@@H](NC(=O)c1cc(C)on1)C(C)C)Cc1ccc(F)cc1 [Rupintrivir] | 0 (compounds with IC50 > 20 μM, percentage inhibition <80% at 20 µM or 50 μM, or percentage enzyme inhibition <50% at 10 µM were labelled as INACTIVE)
38 | Cc1csc(C(=O)NN=Cc2cccnc2)c1N [LASSBio-1891 (14)] | 0 (compounds with IC50 > 20 μM, percentage inhibition <80% at 20 µM or 50 μM, or percentage enzyme inhibition <50% at 10 µM were labelled as INACTIVE)
39 | CNc1ccc(N(Cc2ccsc2)C(=O)Cn2nnc3ccccc32)cc1 [16j] | 1 (Compounds with IC50 < 10 µM or with a percentage of enzyme inhibition >50% at 10 µM were labelled as ACTIVE)
